# Laboratory results reported in patent publication US9353152B2, “Induction of the mitochondrial permeability transition” (NewSouth Innovations Pty Limited, priority 2002, dated 2016).
# Experiments:
# [1] = tested on: human pancreatic carcinoma BxPC-3 cells; test: Cell proliferation and viability assay (MTT); type: cell-based; details: 10% serum, 48 h; read-out: IC50 for proliferation arrest of BxPC-3 cells
# Protocol: BAE or human pancreatic carcinoma BxPC-3 cells were seeded at a density of 10^3 cells per well into 96 well plates in DMEM containing 10% foetal bovine serum and allowed to adhere for 24 h. Cells were washed and incubated with DMEM containing 10% foetal bovine serum and GSAO or o-GSAO and cultured for a further 48 h. Some BAE cells were arrested for 24 h in medium containing 0.25% serum and cultured for a further 48 h in medium containing 0.25% or 10% serum, in the presence of GSAO or o-GSAO. Viable attached cells were determined using MTT.
# BxPC-3 tumours = test: Primary tumour growth assay; type: in vivo, SCID mice; details: 10 mg/kg/day s.c., SCID mice, BxPC-3
# Protocol: Female 7 to 9 week old SCID or C57Bl6/J mice were used (Massachusetts General Hospital, Boston, Mass.). Mice were held in groups of 3 to 5 at a 12 hour day and night cycle and were given animal chow and water ad libidum. SCID or C57Bl6/J mice were anaesthetised by inhalation of isoflurane, the dorsal skin shaved and cleaned with ethanol, and a suspension of 2.5×10^6 BxPC-3, HT1080 or LLC cells in 0.2 mL of PBS, or saline for LLC cells, was injected S.C. in the proximal midline. LLC cells were prepared according to O'Reilly et al. (1997). Tumour volume was calculated using the relationship, a·b^2·0.52, where a is the longest and b the shortest diameter.
# [2] = Titration of arsenoxide compounds with DTT; type: physicochemical; details: GSAO versus Compound 1
# MPTP = biological target: T1, MPTP (Rattus norvegicus, UniProt Q09073); type: biochemical
# T1 construct: Mitochondria were isolated from the livers of ˜250 g male Wistar rats; from tissue; host or cells: rat liver mitochondria (male Wistar rats)
# T1 sequence (Q09073 2-298 limits assumed): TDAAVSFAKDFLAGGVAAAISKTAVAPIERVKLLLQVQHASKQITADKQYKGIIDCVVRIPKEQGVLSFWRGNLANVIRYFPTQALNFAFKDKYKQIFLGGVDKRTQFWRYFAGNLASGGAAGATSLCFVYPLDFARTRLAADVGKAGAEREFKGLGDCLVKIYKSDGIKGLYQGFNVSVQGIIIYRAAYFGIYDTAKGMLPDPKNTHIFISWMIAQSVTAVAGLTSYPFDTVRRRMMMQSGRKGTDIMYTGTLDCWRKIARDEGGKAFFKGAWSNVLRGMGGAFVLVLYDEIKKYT
# BAE cells [3] = details: read-out: IC50 (μM)*
# BAE cells [4] = type: cell-based, bovine
# [5] = tested on: bovine vascular smooth muscle cells; test: Proliferation arrest; type: cell-based
# Protocol: To distinguish between the anti-proliferative and pro-apoptotic effects of GSAO, treated cells were stained with propidium iodide (PI) to detect late-apoptotic or dead cells. The total number of cells and the proportion of cells that were PI-positive following 48 h treatment with GSAO were measured by flow cytometry.
smiles,measurement,setting,value
"N[C@@H](CCC(=O)N[C@@H](CSCC(=O)Nc1ccc([As]=O)cc1)C(=O)NCC(=O)O)C(=O)O (stereo partly drawn) [GSAO, 4-(N—(S-glutathionylacetyl)amino)-phenylarsenoxide]",IC50,[1],> 300 µM
same,inhibition of the rate of tumour growth,BxPC-3 tumours,> 90%
same,arsenical reactivity (titration with DTT),[2],no significant difference
same,MPTP Swelling Rate Increase/GSAO* Mean,MPTP,1
same,IC50,BAE cells [3],8.28 µM
same,cellular levels of O2^− versus concentration,BAE cells [4],"increased linearly with GSAO concentration in proliferating, but not growth-quiescent, BAE cells"
same,decrease in H2O2,BAE cells [4],30%
same,increase in the level of O2^−,BAE cells [4],100%
same,IC50,[5],~30 µM
